In patent publication US20230312476A1, “COMPOUNDS WITH SEMIOCHEMICAL PROPERTIES AND BIOSENSORS” (ROTHAMSTED RESEARCH LIMITED, priority 2020, published 2023) one finds Kd data, which are given here for six compounds.

Like-named read-outs stand apart in the source and are kept apart here.

The target of test [1] is T1, OBP6 (Acyrthosiphon pisum, UniProt A0A8R1TDN2). Kind of test: 1-NPN fluorescence competitive binding assay, OBP6. The procedure: (§1) All fluorescent measurements were undertaken using a Perkin-Elmer LS50B fluorescence spectrophotometer, using a 2 mL quartz cuvette, and the settings described below in Table 13, unless otherwise stated. Spectra were recorded using FL WinLab software.
(§2) Saturation of OBPs with fluorescent probe and 1-NPN (Sigma-Aldrich) was initially measured by titrating a 2 μM protein sample (2 mL in 25 mM Tris-HCl) with aliquots of 1 mM ligand (Sigma-Aldrich) in methanol to final concentrations of 1-16 μM. The fluorescence intensity at […] was recorded.
(§3) The competitive binding of ligands was measured by observing the intrinsic fluorescence of tryptophan. Titrations were performed with aliquots of 1 mM ligand in methanol to final concentrations of 1-20 μM, either after the addition of fluorescent probe to a final concentration of 1 μM or in the absence of fluorescent probe.
(§4) To generate KD values, relative fluorescence intensity was plotted against the concentration of ligand as a binding curve. KD values were generated in GraphPad Prism 7 using a non-linear regression and the inbuilt equation: […]

The target of test [2] is T1, OBP6. Kind of test: Fluorescent probe-free (intrinsic tryptophan fluorescence) binding assay, OBP6. Here is the method:
as §1, §3, §4

A further test addresses OBP9 (Acyrthosiphon pisum, UniProt A0A8R1TD77). Kind of test: 1-NPN fluorescence competitive binding assay, OBP9. Here is the method: as §1, §2, §3, §4
Setting [3] is: OBP6 with 1-NPN fluorescent probe, non-linear regression, ± error, read-out: OBP6 1-NPN Assay KD.
The mark [4] stands for this setting: OBP6, absence of fluorescent probe, non-linear regression, ± error, read-out: OBP6 Fluorescent Probe-Free Assay KD.
Where [5] appears, read: OBP9 with 1-NPN fluorescent probe, non-linear regression, ± error, read-out: OBP9 1-NPN Assay KD.

Sequence of OBP9 (A0A8R1TD77 1-165): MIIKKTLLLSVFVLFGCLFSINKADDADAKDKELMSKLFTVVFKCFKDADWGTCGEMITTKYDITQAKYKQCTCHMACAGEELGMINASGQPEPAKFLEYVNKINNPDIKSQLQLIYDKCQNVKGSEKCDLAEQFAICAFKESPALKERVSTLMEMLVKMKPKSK
T1 sequence (A0A8R1TDN2 1-160): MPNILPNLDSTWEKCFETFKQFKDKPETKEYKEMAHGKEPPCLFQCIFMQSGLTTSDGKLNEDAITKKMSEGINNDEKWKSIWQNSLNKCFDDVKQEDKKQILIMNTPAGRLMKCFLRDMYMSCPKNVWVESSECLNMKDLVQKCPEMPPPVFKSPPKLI

As for `C=CC(C)(O)CCC=C(C)C` (racemic) [(R/S)-linalool], the Kd (in general, the concentration at which binding is half-saturated) at OBP6 [1] was 8.95 ± 3.71 µM.

For `C=CC(=C)CC/C=C(\C)CCC=C(C)C` [(E)-β-farnesene], the Kd at OBP6 [1] (setting [3]) amounted to 10.1 ± 2.88 µM; on OBP6 [2] (setting [4]) it was 34.5 ± 10.9 µM; on OBP9 (setting [5]), 8.32 ± 2.67 µM.

In the case of `CC1=CO[C@@H](O)[C@H]2[C@@H]1CC[C@@H]2C` [Compound A, (1R,4aS,7S,7aR)-4,7-dimethyl-1,4a,5,6,7,7a-hexahydrocyclopenta[c]pyran-1-ol], the Kd on OBP6 [1] (setting [3]) was 2.62 ± 0.63 µM; at OBP6 [2] (setting [4]), 12.7 ± 2.31 µM; at OBP9 (setting [5]), 5.74 ± 1.71 µM.

Consider `CC1=COC(=O)[C@H]2[C@@H]1CC[C@@H]2C` [Compound B, (4aS,7S,7aR)-4,7-dimethyl-5,6,7,7a-tetrahydrocyclopenta[c]pyran-1(4aH)-one], for which the results for the Kd on OBP6 [1] (setting [3]), on OBP6 [2] (setting [4]) and at OBP9 (setting [5]) were 1.3 ± 0.6 µM, 1.9 ± 0.35 µM and 6.49 ± 1.58 µM, respectively.

Consider `CC1=CO[C@H](O)[C@H]2[C@H](C)CC[C@@H]12` [Compound C, (1S,4aR,7R,7aS)-4,7-dimethyl-1,4a,5,6,7,7a-hexahydrocyclopenta[c]pyran-1-ol], for which the figures for the Kd at OBP6 [1] (setting [3]), on OBP6 [2] (setting [4]) and at OBP9 (setting [5]) were 2.65 ± 0.8 µM, 8.46 ± 1.62 µM and 6.29 ± 1.99 µM, respectively.

For the compound `CC1=COC(=O)[C@H]2[C@H](C)CC[C@@H]12` [Compound D, (4aR,7R,7aS)-4,7-dimethyl-5,6,7,7a-tetrahydrocyclopenta[c]pyran-1(4aH)-one], the Kd at OBP6 [1] came to 4.37 ± 0.81 µM; at OBP6 [2], 12 ± 4.24 µM; at OBP9, 9.68 ± 4.57 µM.
